Data reported in publication PMC7026080, “Phenotypic high-throughput screening platform identifies novel chemotypes for necroptosis inhibition” (Cell Death Discovery, 2020).
In brackets after ≈: the same amount, converted by molar mass. Read-outs that look alike come from different tables or passages of the source.

Columns and labels:
L929 cells = test: Necroptosis inhibition in L929 cells + mTNF-α, 8 h, AK release; type: cell-based, murine; details: for EC50: Mus musculus, L929
Experimental: A total of 251,328 small-molecule compounds were screened in L929 cells incubated with mTNF-α alone or together with test compounds at 31.7 μM for 8 h. Intraplate controls for data normalization consisted of untreated cell wells. L929 cells co-incubated with mTNF-α and SN-2668/Nec-1 served as positive controls (Fig. S2A). […] In HTS step one (primary screening), valid data was obtained for 247,738 compounds, 3353 of which were within the established hit selection criteria, corresponding to a 1.4% hit rate for the full library (Fig. 1a).
(§1) The second screening step aimed to determine the EC50 of selected compounds. L929 and Jurkat FADD^-/- cells were co-incubated with TNF-α and test compounds at 10-point concentration range (0.004–100 μM) for 8 h. Compound-mediated inhibition of necroptosis was assessed through AK release and the EC50 calculated. Jurkat cells were used to validate results in human cells. […] In HTS step two, 4374 compounds (3353 hits from HTS step one plus 1021 near neighbours) were evaluated for potency by dose-response curves. From those, 1,438 hit compounds passed the selection criteria on both cell lines, corresponding to a […] hit rate.
(§2) L929 cells were co-incubated for 8 h with mTNF-α and test compounds at 31.7 μM after which AK release was measured. […] Hit compounds were then evaluated for apoptosis modulation. Further details are provided as Supplementary Information.
(§3) Cell treatments and viability assays. Cells were seeded in 384- or 96-well plates at 1000 or 8000 cells/well (in 12.5 μL or 100 μL final volume), respectively, using a Multidrop^TM Combi Reagent Dispenser (ThermoFisher Scientific). For inducing necroptosis, L929 and Jurkat FADD^-/- cells were incubated with 10 ng/mL mTNF-α and hTNF-α respectively; BV2 cells with 25 µM Z-VAD-FMK, and HT29 cells with 20 ng/mL hTNF-α, 250 nM Smac mimetic BV6 and 10 μM Z-VAD-FMK. Cells were co-incubated in the presence of test compounds at target concentrations for 8 or 24 h. Nec-1 at 29.2 μM was used as positive control. For apoptosis assays, Jurkat E6.1 cells were co-incubated with 0.5 μg/mL CHX and test compounds at target concentrations for 8 h. In cytotoxicity assays, HepG2 and L929 cells were seeded in 96-well plates at 5000 cells/well, in 100 μL final volume. Twenty-four hours after seeding, cells were incubated with test compounds at 50 and 100 μM for additional 24 h.
(§4) Adenylate kinase (AK) and lactate dehydrogenase (LDH) release from damaged cells were measured using the Toxilight BioAssay Kit (Lonza, Basel, Switzerland) and the Cytotoxicity Detection Kit (Roche Diagnostics GmbH, Mannheim, Germany), respectively. Adenosine triphosphate (ATP) metabolism was evaluated using CellTiter-Glo^TM Luminescent Cell Viability Assay (Promega, Madison, WI, USA). Apoptosis was determined by the measurement of caspase-3/-7 activity using the Caspase-Glo® 3/7 Assay (Promega) according to the manufacturer’s instructions. Cellular metabolic activity was measured using CellTiter 96® Aqueous Non-Radioactive Cell Proliferation (MTS) Assay (Promega). Luminescence signal was recorded using a GloMax®-MultiDetection System (Promega) and absorbance with a Model 680 microplate reader (Bio-Rad Laboratories Inc, Hercules, CA, USA).
Primary high-throughput screen. Test compounds were arrayed in 384-well white microtiter plates and screened for their potential as necroptosis inhibitors at 32 μM target concentration. Eight hours after co-incubation of L929 cells with mTNF-α and test compounds, AK release was evaluated. […]

Jurkat FADD-/- cells = test: Necroptosis inhibition in Jurkat FADD-/- cells + TNF-α, 8 h, AK release; type: cell-based; details: Homo sapiens
Experimental: as §1, §2
as §3, with “In cytotoxicity assays, HepG2 and L929 cells were seeded in 96-well plates at 5000 cells/well, in 100 μL final volume. Twenty-four hours after seeding, cells were incubated with test compounds at 50 and 100 μM for additional 24 h.” left out
as §4
Primary high-throughput screen. […] Eight hours after co-incubation of L929 cells with mTNF-α and test compounds, AK release was evaluated. […] Eight hours after co-incubation of L929 or Jurkat FADD^-/- cells with TNF-α and test compounds, AK release was evaluated. […]

Aqueous solubility = type: physicochemical; details: read-out: Aqueous solubility, concentration
[1] = MDCK-MDR1 cell-based permeability assay; type: in vitro ADME; details: dog
[2] = 8 h, 10 ng/mL mTNF-α, AK release, screening step 1 as printed, read-out: EC50 L929 + TNF-α (in vitro)
[3] = read-out: L929 + TNF-α (in vitro) pEC50 (converted)
[4] = 8 h, screening step 2, AK release, read-out: EC50 Jurkat FADD(-/-) + TNF-α (in vitro)
[5] = read-out: Jurkat FADD (-/-) (in vitro) pEC50 (converted)

SMILES | Membrane integrity (L929 cells; DMSO = 0, no addition = −100, L929, 10 ng/mL mTNF-α, 8 h, Nec-1 at 29.2 μM) | EC50 (L929 cells; [2]) [nM] | EC50 (L929 cells; [3]) [nM] | EC50 (Jurkat FADD-/- cells; [4]) [nM] | EC50 (Jurkat FADD-/- cells; [5]) [nM] | solubility (Aqueous solubility) [µM] | Papp A→B [1] [×10⁻⁶ cm/s] | Papp B→A [1] [×10⁻⁶ cm/s] | solubility (Aqueous solubility; aqueous medium (not further specified)) [µM]
CN1C(=O)C(Cc2c[nH]c3ccccc23)NC1=S (stereo not drawn) [Nec-1, necrostatin-1] | > −100 percentage of control | 1250 | 1260 | 390 | 398 | 97 (≈ 25.2 µg/mL) | 31 | 34 | –
O=C(c1cnn(Cc2ccccc2)c1)N1CCOc2ccccc2C1 [SN-6109] | – | 6300 | 6310 | 630 | 631 | – | 35 | 18 | 47 (≈ 15.7 µg/mL)
